Data as given in patent publication US9890138B2, “Diaminopyrimidine derivatives and processes for the preparation thereof” (YUHAN CORPORATION, priority 2011, dated 2018).

Biological target: T1, human 5-HT4(a) (Homo sapiens, UniProt Q13639)
T1 construct: host or cells: GeneBlAzer HTR4-CRE-bla CHO-K1 cells
Test: Evaluation of agonistic activity in CHO-K1 cells expressing human 5-HT4(a) (GeneBlAzer HTR4-CRE-bla CHO-K1, beta-lactamase reporter)
Format: cell-based
Settings: CHO-K1 cells stably expressing human 5-HT4(a)
Outline: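 Agonism read as CRE-driven β-lactamase activity: emission ratio 465/535 nm (excitation 410 nm) after 2 h substrate loading. Preceded by 5 h compound treatment, 8 concentrations, 1% DMSO in the added solution, of overnight-plated reporter CHO-K1 cells; EC50 by non-linear regression.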

T1 sequence (Q13639 1-387 isoform Q13639-2): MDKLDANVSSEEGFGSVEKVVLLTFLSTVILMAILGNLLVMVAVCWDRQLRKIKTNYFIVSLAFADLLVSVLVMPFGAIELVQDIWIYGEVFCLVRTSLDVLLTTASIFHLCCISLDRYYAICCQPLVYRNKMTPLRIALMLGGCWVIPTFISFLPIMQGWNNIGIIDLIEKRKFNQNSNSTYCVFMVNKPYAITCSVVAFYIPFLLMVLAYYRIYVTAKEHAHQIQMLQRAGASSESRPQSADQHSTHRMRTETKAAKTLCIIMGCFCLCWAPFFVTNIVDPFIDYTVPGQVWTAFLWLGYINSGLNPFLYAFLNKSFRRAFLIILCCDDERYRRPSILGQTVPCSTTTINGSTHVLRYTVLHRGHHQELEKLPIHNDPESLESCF

| Compound | EC50 |
| --- | --- |
| CCCc1cc(N2CC[C@H](NC)C2)nc(Nc2ccc(C)c(C#N)c2)n1 [Example 170] | 1.3 pM |
| CCCc1cc(N2CCC(NCC)C2)nc(Nc2ccc(C)c(C#N)c2)n1 (stereo not shown) [Example 173] | 4 pM |
| CCCc1cc(N2CC[C@H](NC)C2)nc(Nc2ccc(N)c([N+](=O)[O-])c2)n1 [Example 175] | 229 pM |
| CCCc1cc(N2CC[C@H](NCC)C2)nc(Nc2ccc(N)c([N+](=O)[O-])c2)n1 [Example 176] | 18 pM |
| CCCc1cc(N2CC[C@H](NCC)C2)nc(Nc2ccc(N)c([N+](=O)[O-])c2)n1 [Example 177] | 20 pM |
| CCCc1cc(N2CCC(N)C2)nc(Nc2ccc(F)c(C#N)c2)n1 (stereo not shown) [Example 182] | 36 pM |
| CCCc1cc(N2CCC[C@H]2CO)nc(Nc2ccc3cc[nH]c3c2)n1 [Example 185] | 15 pM |
| CCCc1cc(N2CCC[C@@H]2CO)nc(Nc2ccc3cc[nH]c3c2)n1 [Example 186] | 382 pM |
| CCCc1cc(N2CCCC2CO)nc(Nc2ccc3cc[nH]c3c2)n1 (stereo not shown) [Example 187] | 37 pM |
| CCCc1cc(N2CCC[C@H]2COC)nc(Nc2ccc3cc[nH]c3c2)n1 [Example 189] | 28 pM |
| CCCc1cc(N2CCCC2C)nc(Nc2ccc3cc[nH]c3c2)n1 (stereo not shown) [Example 190] | 50 pM |
| CCCc1cc(N2CCC[C@H]2C(=O)OC)nc(Nc2ccc3cc[nH]c3c2)n1 [Example 191] | 290 pM |
| CCCc1cc(N2CCC[C@H]2CO)nc(Nc2cccc(SC)c2)n1 [Example 195] | 250 pM |
| CCCc1cc(N2CCC[C@H]2CO)nc(Nc2ccc(Cl)c([N+](=O)[O-])c2)n1 [Example 196, (S)-{1-[2-(4-chloro-3-nitrophenylamino)-6-propylpyrimidin-4-yl]pyrrolidin-2-yl}methanol] | 100 pM |
| CCCc1cc(N2CCC[C@H]2CO)nc(Nc2cccc(C(F)(F)F)c2)n1 [Example 203] | 300 pM |
| CCCc1cc(N2CCC[C@H]2CO)nc(Nc2cc(Cl)ccc2C)n1 [Example 204] | 470 pM |
| CCCc1cc(N2CCC[C@H]2CO)nc(Nc2ccc(C)c(Cl)c2)n1 [Example 206] | 160 pM |
| CCCc1cc(N2CCC[C@H]2CO)nc(Nc2cccc([N+](=O)[O-])c2)n1 [Example 207] | 83 pM |
| CCCc1cc(N2CCC[C@H]2CO)nc(Nc2ccc(F)c([N+](=O)[O-])c2)n1 [Example 208, (S)-{1-[2-(4-fluoro-3-nitrophenylamino)-6-propylpyrimidin-4-yl]pyrrolidin-2-yl}methanol] | 60 pM |
| CCCc1cc(N2CCC[C@H]2CO)nc(Nc2ccc(C)c([N+](=O)[O-])c2)n1 [Example 210, (S)-{1-[2-(4-methyl-3-nitrophenylamino)-6-propylpyrimidin-4-yl]pyrrolidin-2-yl}methanol] | 16 pM |
| CCCc1cc(N2CCC[C@H]2CO)nc(Nc2ccc(N)c(C(F)(F)F)c2)n1 [Example 211] | 19 pM |
| CCCc1cc(N2CCC[C@H]2CO)nc(Nc2ccc(N)c([N+](=O)[O-])c2)n1 [Example 212, (S)-{1-[2-(4-amino-3-nitrophenylamino)-6-propylpyrimidin-4-yl]pyrrolidin-2-yl}methanol] | 8.9 pM |
| CCCc1cc(N2CCC[C@H]2CO)nc(Nc2ccc(C)c(C#N)c2)n1 [Example 213] | 17 pM |
| CCCc1cc(N2CCC[C@H]2CO)nc(Nc2ccc(F)c(C#N)c2)n1 [Example 214, (S)-2-fluoro-5-{4-[2-(hydroxymethyl)pyrrolidin-1-yl]-6-propylpyrimidin-2-ylamino}benzonitrile] | 29 pM |
| CCCc1cc(N2CCC[C@H]2CO)nc(Nc2ccc(N)c(C#N)c2)n1 [Example 215] | 18 pM |
| CCCCc1cc(N2CCC[C@H]2CO)nc(Nc2cccc(C#N)c2)n1 [Example 224] | 4.3 pM |
| CCCCc1cc(N2CCC[C@H]2C)nc(Nc2cccc(C#N)c2)n1 [Example 225] | 52 pM |

Results, then the compound that gave them:

| EC50 | Compound |
| --- | --- |
| 228 pM | CCCc1cc(N2CC[C@H](NC(=O)C(C)(C)O)C2)nc(Nc2cccc(C#N)c2)n1 [Example 153, (S)-N-{1-[2-(3-cyanophenylamino)-6-propylpyrimidin-4-yl]pyrrolidin-3-yl}-2-hydroxy-2-methylpropanamide] |
| 417 pM | CCCc1cc(N2CC[C@H](NC(=O)CCc3ccc(O)cc3)C2)nc(Nc2cccc(C#N)c2)n1 [Example 155, (S)-N-{1-[2-(3-cyanophenylamino)-6-propylpyrimidin-4-yl]pyrrolidin-3-yl}-3-(4-hydroxyphenyl)propanamide] |
| 219 pM | CCCc1cc(N2CC[C@H](NC(=O)CCC(C)=O)C2)nc(Nc2cccc(C#N)c2)n1 [Example 156, (S)-N-{1-[2-(3-cyanophenylamino)-6-propylpyrimidin-4-yl]pyrrolidin-3-yl}-4-oxopentanamide] |
| 44 pM | CCCc1cc(N2CC[C@H](NC(=O)CO)C2)nc(Nc2cccc(C#N)c2)n1 [Example 157, (S)-N-{1-[2-(3-cyanophenylamino)-6-propylpyrimidin-4-yl]pyrrolidin-3-yl}-2-hydroxyacetamide] |
| 436 pM | CCCc1cc(N2CC[C@H](NC(=O)COCc3ccccc3)C2)nc(Nc2cccc(C#N)c2)n1 [Example 158] |
| 121 pM | CCCc1cc(N2CC[C@H](NC(=O)CN(C)C)C2)nc(Nc2cccc(C#N)c2)n1 [Example 160] |
| 119 pM | CCCc1cc(N2CC[C@H](NC(=O)CCN(C)C)C2)nc(Nc2cccc(C#N)c2)n1 [Example 161] |
| 193 pM | CCCc1cc(N2CC[C@H](NC(=O)CCCN(C)C)C2)nc(Nc2cccc(C#N)c2)n1 [Example 162] |
| 200 pM | CCCc1cc(N2CC[C@H](NC(=O)CNC(=O)OCc3ccccc3)C2)nc(Nc2cccc(C#N)c2)n1 [Example 165, (S)-benzyl 2-{1-[2-(3-cyanophenylamino)-6-propylpyrimidin-4-yl]pyrrolidin-3-ylamino}-2-oxoethylcarbamate] |
| 103 pM | CCCc1cc(N2CC[C@H](NC(=O)CCCNC(=O)OC(C)(C)C)C2)nc(Nc2cccc(C#N)c2)n1 [Example 166] |
| 8.7 pM | CCCc1cc(N2CC[C@H](NC)C2)nc(Nc2ccc(F)c(C#N)c2)n1 [Example 180] |
| 20 pM | CCCc1cc(N2CCC(NC(C)=O)C2)nc(Nc2ccc3cc[nH]c3c2)n1 (stereo not shown) [Example 192] |
| 200 pM | CCCc1cc(N2CCC[C@H]2CO)nc(Nc2cccc(C#N)c2)n1 [Example 194, (S)-3-{4-[2-(hydroxymethyl)pyrrolidin-1-yl]-6-propylpyrimidin-2-ylamino}benzonitrile] |
| 70 pM | CCCc1cc(N2CC[C@H](NCCN)C2)nc(Nc2cccc(C#N)c2)n1 [Example 220] |
| 149 pM | CCCc1cc(N2CC[C@H](NC3CCNCC3)C2)nc(Nc2cccc(C#N)c2)n1 [Example 221, (S)-3-{4-[3-(piperidin-4-ylamino)pyrrolidin-1-yl]-6-propylpyrimidin-2-ylamino}benzonitrile] |
| 82 pM | CCCCN1CCC(N[C@H]2CCN(c3cc(CCC)nc(Nc4cccc(C#N)c4)n3)C2)CC1 [Example 222] |
| 11 pM | CCCCc1cc(N2CC[C@H](NC(C)=O)C2)nc(Nc2cccc(C#N)c2)n1 [Example 223] |
| 52 pM | CCCCc1cc(N2CC[C@H](NC)C2)nc(Nc2cccc(C#N)c2)n1 [Example 226] |
| 14 pM | CCCCc1cc(N2CC[C@H](NC(C)=O)C2)nc(Nc2ccc(C)c(C#N)c2)n1 [Example 228, (S)—N-{1-[6-butyl-2-(3-cyano-4-methylphenylamino)pyrimidin-4-yl]pyrrolidin-3-yl}acetamide] |
